From US20260226085A1, “HETEROCYCLIC COMPOUNDS AS WRN INHIBITORS” (Synnovation Therapeutics, Inc., priority 2023, published 2026)

Each compound was assayed on SW48 colorectal cancer cells (assay: Cell-Titer Glo measurement of growth-inhibitory activity in SW48 cells). Conditions: Homo sapiens, 120 h, cell viability on day 5, Cell-titer Glo, baseline subtracted, 4PL fit, read-out: SW48_GI50.
Format: cell-based
Procedure: Example A. Cell-Titer Glo Measurement of Growth-Inhibitory Activity in SW48 Cells
This cell-based assay measures growth-inhibitory activity of selected WRN inhibitors in SW48 colorectal cancer cells. SW48 cell line (#CCL-231) was purchased from American type culture collection (ATCC). Cells were cultured following ATCC instructions. The base medium for this cell line is ATCC-formulated Leibovitz's L-15 Medium (#30-2008). To prepare complete medium, fetal bovine serum was added at a final concentration of 10%. Antibiotics including penicillin and streptomycin (#SV30010) were purchased from Cytiva and added into complete medium to prevent bacteria contamination. Cells with a passage number of below 20 were used in this cell-based assay. One day before the assay, cells were resuspended in complete medium and seeded into 96-well plates at a final density of 2000 cells per well. One extra plate was added to measure baseline viability on day 1 before compound treatment. Baseline cell viability was measured using Promega Cell-titer Glo reagent (#G7573) following the protocol provided by the manufacture. Compounds were dissolved in DMSO at a stock concentration of 10 mmol/L. Three-fold serial dilution was performed using DMSO to prepare master plates. Compounds were further diluted using complete medium and added into assay plates. The final concentration of DMSO was 0.2% in assay plates. Cell viability was measured on day 5 using Promega Cell-titer Glo reagent following the same protocol provided by the manufacture. Assay plates were kept on orbital shaker (300 rounds per min) for 2 min and then kept in 37° C. incubator for another 10 minutes. Cell-titer Glo luminescence signal was measured using i3x plate reader. Baseline cell viability was subtracted for growth inhibition 50 (GI50) estimate using GraphPad Prism following the four-parameter logistic (4PL) curve-fitting mathematical model.

GI50 [nM] | Structure (SMILES)
< 100 | CCc1c(N2CCN(C(=O)c3nc4ccccc4cc3O)CC2)c(=O)n2nc(C3=CCOCC3)nc2n1CC(=O)Nc1ccc(C(F)(F)F)cc1Cl [Example 2, N-[2-Chloro-4-(trifluoromethyl)phenyl]-2-[2-(3,6-dihydro-2H-pyran-4-yl)-5-ethyl-6-[4-(3-hydroxyquinoline-2-carbonyl)piperazin-1-yl]-7-oxo-[1,2,4]triazolo[1,5-a]pyrimidin-4-yl]acetamide]
100 to 1000 | CCc1c(N2CCN(C(=O)c3c(O)ccc4cccnc34)CC2)c(=O)n2nc(N3CCC4(CCCO4)CC3)nc2n1CC(=O)Nc1ccc(C(F)(F)F)cc1Cl [Example 6, N-(2-chloro-4-(trifluoromethyl)phenyl)-2-(5-ethyl-6-(4-(7-hydroxyquinoline-8-carbonyl)piperazin-1-yl)-7-oxo-2-(1-oxa-8-azaspiro[4.5]decan-8-yl)-[1,2,4]triazolo[1,5-a]pyrimidin-4(7H)-yl)acetamide]
< 100 | CCc1c(N2CCN(C(=O)c3c(O)ccc4cccnc34)CC2)c(=O)n2nc(C3=CCOCC3)nc2n1CC(=O)Nc1ccc(C(F)(F)F)cc1Cl [Example 5, N-[2-chloro-4-(trifluoromethyl)phenyl]-2-[2-(3,6-dihydro-2H-pyran-4-yl)-5-ethyl-6-[4-(7-hydroxyquinoline-8-carbonyl)piperazin-1-yl]-7-oxo-[1,2,4]triazolo[1,5-a]pyrimidin-4-yl]acetamide]
< 100 | CCc1c(N2CCN(C(=O)c3ncc4ccccc4c3O)CC2)c(=O)n2nc(C3=CCOCC3)nc2n1CC(=O)Nc1ccc(C(F)(F)F)cc1Cl [Example 1, N-[2-Chloro-4-(trifluoromethyl)phenyl]-2-[2-(3,6-dihydro-2H-pyran-4-yl)-5-ethyl-6-[4-(4-hydroxyisoquinoline-3-carbonyl)piperazin-1-yl]-7-oxo-[1,2,4]triazolo[1,5-a]pyrimidin-4-yl]acetamide]
100 to 1000 | CCc1c(N2CCN(Cc3ncccc3O)CC2)c(=O)n2nc(C3=CCOCC3)nc2n1CC(=O)Nc1ccc(C(F)(F)F)cc1Cl [Example 4, N-[2-chloro-4-(trifluoromethyl)phenyl]-2-[2-(3,6-dihydro-2H-pyran-4-yl)-5-ethyl-6-[4-[(3-hydroxy-2-pyridyl)methyl]piperazin-1-yl]-7-oxo-[1,2,4]triazolo[1,5-a]pyrimidin-4-yl]acetamide]
< 100 | CCc1c(N2CCN(C(=O)c3c(O)ccc4cccnc34)CC2)c(=O)n2nc(-c3ccc(S(C)(=O)=O)cc3)nc2n1CC(=O)Nc1ccc(C(F)(F)F)cc1Cl [Example 8, N-(2-Chloro-4-(trifluoromethyl)phenyl)-2-(5-ethyl-6-(4-(7-hydroxyquinoline-8-carbonyl)piperazin-1-yl)-2-(4-(methylsulfonyl)phenyl)-7-oxo-[1,2,4]triazolo[1,5-a]pyrimidin-4(7H)-yl)acetamide]
< 100 | CCc1c(N2CCN(Cc3ncccc3O)CC2)c(=O)n2nc(-c3ccc(P(C)(C)=O)cc3)nc2n1CC(=O)Nc1ccc(C(F)(F)F)cc1Cl [Example 10, N-(2-Chloro-4-(trifluoromethyl)phenyl)-2-(2-(4-(dimethylphosphoryl)phenyl)-5-ethyl-6-(4-((3-hydroxypyridin-2-yl)methyl)piperazin-1-yl)-7-oxo-[1,2,4]triazolo[1,5-a]pyrimidin-4(7H)-yl)acetamide]
100 to 1000 | CCc1c(N2CCN(Cc3ncccc3O)CC2)c(=O)n2nc(-c3ccc(S(C)(=O)=O)cc3)nc2n1CC(=O)Nc1ccc(C(F)(F)F)cc1Cl [Example 9, N-(2-Chloro-4-(trifluoromethyl)phenyl)-2-(5-ethyl-6-(4-((3-hydroxypyridin-2-yl)methyl)piperazin-1-yl)-2-(4-(methylsulfonyl)phenyl)-7-oxo-[1,2,4]triazolo[1,5-a]pyrimidin-4(7H)-yl)acetamide]
1000 to 5000 | CCc1c(N2CCN(Cc3ncccc3O)CC2)c(=O)n2nc(N3CCC4(CCCO4)CC3)nc2n1CC(=O)Nc1ccc(C(F)(F)F)cc1Cl [Example 7, N-(2-chloro-4-(trifluoromethyl)phenyl)-2-(5-ethyl-6-(4-((3-hydroxypyridin-2-yl)methyl)piperazin-1-yl)-7-oxo-2-(1-oxa-8-azaspiro[4.5]decan-8-yl)-[1,2,4]triazolo[1,5-a]pyrimidin-4(7H)-yl)acetamide]
